Among the data in patent publication US6555541B1, “Substituted phenyl compounds with immunosuppressing activity and pharmaceutical compositions” (Astrazeneca UK Limited, priority 2000, dated 2003) are melting point values, retold here.

Structures can show the parent of a compound that is named as a salt.

In the case of `O=C(CNc1ccc(F)c(F)c1)Nc1cc(N2CCNCC2)ccc1Cl` (as salt: hydrochloride), the melting point is 240 °C (dec.).
Take `Cc1ccc(CN2CCNCC2)cc1NC(=O)CNc1ccc(F)c(F)c1` (as salt: hydrochloride) [Example 1, 2-(3,4-Difluorophenylano)-N-(2-methyl-5-piperazin-1-ylmethyl-phenyl)-acetamide, trihydrochloride]: the melting point is 232 to 248 °C (dec.).
Take `Cc1cc(N2CCNCC2)ccc1NC(=O)CNc1ccc(F)c(F)c1` (as salt: hydrochloride) [Example 10, 2-(3,4-Difluoro-phenylamino)-N-(2-methyl-5-piperazin-1-yl-phenyl)-acetaniide, trihydrochloride]: the melting point was over 230 °C.
For `Cc1ccc(CN2CCNCC2)cc1NC(=S)CNc1ccc(F)c(F)c1` [Example 2, 2-(3,4-Difluoro-phenylamino)-N-(2-methyl-5-piperazin-1-ylmethyl-phenyl)-thioacetamide] the value was 72 to 82 °C (dec.).
Consider `Cc1c(Cn2ccnc2)cccc1NC(=O)CNc1ccc(F)c(F)c1` [Example 17, 2-(3,4-Difluorophenylamino)-N-(3-imidazol-1-ylmethyl-2-methylphenyl)acetamide], for which the melting point is 160 °C (dec.).
For `Cc1c(CN(C)C)cccc1NC(=O)CNc1ccc(F)c(F)c1` [Example 18, 2-(3,4-Difluorophenylamino)-N-(3-dimethylaminomethyl-2-methylphenyl)acetamide] the value was 144 °C (dec.).
